Consider 1 compound from patent US10022392B2, “Compositions based on methyl cyclodextrins for the treatment and/or prevention of diseases by increasing the HDL cholesterol level” (ROQUETTE FRERES, priority 2013, dated 2018).

Molecules are shown by their SMILES.

Assay [1] concerns adult bovine aortic endothelial cells (ABAEs). The experiment in a line: Cholesterol efflux: 3H-cholesterol captured by the cyclodextrins from aortic endothelial cells. In kind it is cell-based. The conditions noted are these: 1 mM cyclodextrin, 2 hours, FIG. 2. The text has this:
(§1) Cells: The endothelial cells were adult bovine aortic endothelial cells (ABAEs).
Cyclodextrins: the cyclodextrins used were the following: a non-methylated β-cyclodextrin, hereinafter denoted “β-CD”, a methyl-β-cyclodextrin having an MS of 0.2, hereinafter denoted “MβCD-0.2”, a methyl-β-cyclodextrin having an MS of 0.67 (KLEPTOSE® CRYSMEB, ROQUETTE FRERES), hereinafter denoted “MβCD-0.67”, a methyl-β-cyclodextrin having an MS of 1.8 (RAMEB®, CYCLOLAB), hereinafter denoted “MβCD-1.8”.
0.5 μCi/ml of 3H-cholesterol was incorporated into serum (10% horse serum/calf serum (HS/CS)) for 6 hours at 37° C. for the purpose of obtaining a culture medium enriched with radioactive cholesterol. After this incorporation, the culture medium was finalized by incorporation of DMEM (Dulbecco's Modified Eagle's medium) supplemented with 10% HS, 10% CS, 1 ng/ml bFGF (basic fibroblast growth factor), 2 mM glutamine and 50 μg/ml gentamicin. […]
Two hours after the beginning of the incubation in the presence of each cyclodextrin, 500 μl of medium were removed and the radioactive cholesterol captured by the cyclodextrin was assayed by means of a scintillation counter (Tri-carb 2100TR). The radioactivity was measured in disintegrations per minute (DPM). The capacity of each cyclodextrin to capture cellular cholesterol was then estimated by performing the following calculation: ((1.4 ml/0.5 ml)×DPM measured). […]

A further assay deals with ABCA1. The experiment in a line: Expression of the ABCA1 transporter (real-time PCR) in endothelial cells treated with cyclodextrins. Format: cell-based, bovine. The conditions noted are these: 1 mM cyclodextrin, 24 hours, ABAEs, compared with control, FIG. 3. As for the experimental part:
as §1
(§2) The cells were then cultured in this radioactive medium for 36 hours in order to allow them to incorporate the radioactive cholesterol. The medium was then removed and the cells were rinsed twice with warm DMEM containing 0.1% of bovine serum albumin (BSA). The cells were then cultured in DMEM/1 ng/ml bFGF containing 1 mM of each cyclodextrin for 24 hours (1.4 ml/well).
(§3) After 24 hours of treatment with each cyclodextrin, the cells were rinsed twice in cold PBS (8 g/l NaCl, 0.2 g/l KCl, 0.2 g/l KH2PO4, 2.87 g/l NA2HPO4 (12H2O), pH 7.4) and lyzed using 500 μl of RLT lysis buffer […]. Three wells were used and pooled for each condition. […] At the end of this purification step, the mRNA concentration was estimated by virtue of the absorbance values obtained at 260, 280 and 320 nm. […]
(§4) The amplification was carried out over the course of 40 cycles with a hybridization temperature of 60° C. using the Biorad CFX96 thermocycler. For each pair of primers, the amplification specificity was verified by producing melting curves and the efficiency was determined by producing dilution curves. The expression levels measured were then normalized on the expression levels of β-actin and cyclophillin B using the ΔΔCt method. […]
(In general: Quantitative PCR measures a nucleic acid by following its amplification.)

The subject of the next assay is ABCG1. Kind of assay: Expression of the ABCG1 transporter (real-time PCR) in endothelial cells treated with cyclodextrins. The conditions noted are these: 1 mM cyclodextrin, 24 hours, ABAEs, compared with control, FIG. 4. Format: cell-based, bovine. As for the experimental part:
as §1, §2, §3, §4

Take `OC[C@H]1O[C@@H]2O[C@H]3[C@H](O)[C@@H](O)[C@@H](O[C@H]4[C@H](O)[C@@H](O)[C@@H](O[C@H]5[C@H](O)[C@@H](O)[C@@H](O[C@H]6[C@H](O)[C@@H](O)[C@@H](O[C@H]7[C@H](O)[C@@H](O)[C@@H](O[C@H]8[C@H](O)[C@@H](O)[C@@H](O[C@H]1[C@H](O)[C@H]2O)O[C@@H]8CO)O[C@@H]7CO)O[C@@H]6CO)O[C@@H]5CO)O[C@@H]4CO)O[C@@H]3CO` [βCD, β-cyclodextrin]: in assay [1], the “Cholesterol efflux (radioactive cholesterol captured by the cyclodextrin)” value is “rapid and considerable efflux”. In addition, the “ABCA1 receptor expression (mRNA)” value with ABCA1 is reported as “strongly decreasing”. In the assay with ABCG1, the “ABCG1 receptor expression (mRNA)” value is listed as “strongly decreasing”.
